Laboratory results as given in US20120225093A1, “Abrogating HIV-1 Infection via Drug-Induced Reactivation of Apoptosis” (UNIVERSITY OF MEDICINE AND DENTISTRY OF NEW JERSEY, priority 2010, published 2012).

Columns and labels:
eIF5A:DOHH complex = target: T1, eIF5A:DOHH complex (Homo sapiens, UniProt Q9BU89); assay: Co-immunoprecipitation of eIF5A with DOHH from 293T cell extracts; format: cell-based; conditions: CPX 30 μM, P2 30 μM, DEF 250 μM, DFOX 10 μM, GC7 10 μM; 24 hr
T1 construct: Endogenous DOHH co-immunoprecipitated with FLAG-eIF5A; expressed in transfected cells; host or cells: 293T cells (DOHH endogenous, FLAG-eIF5A transfected)
T1 sequence (Q9BU89 1-302): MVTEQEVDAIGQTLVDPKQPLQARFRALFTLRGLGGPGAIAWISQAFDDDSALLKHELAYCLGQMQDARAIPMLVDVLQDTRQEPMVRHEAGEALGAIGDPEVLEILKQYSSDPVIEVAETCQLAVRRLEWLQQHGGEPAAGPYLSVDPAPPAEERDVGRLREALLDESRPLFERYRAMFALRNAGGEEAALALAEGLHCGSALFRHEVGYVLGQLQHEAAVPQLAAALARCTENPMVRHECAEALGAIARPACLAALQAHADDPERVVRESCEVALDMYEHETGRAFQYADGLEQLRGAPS
Protocol: (§1) Immunoprecipitation and immunoblotting experiments were carried out as described previously in Hoque et al. Mol Cell Biol 2003, 23:1688-1702.
(§2) eIF5A forms tight complexes with its modifying enzymes. Unmodified eIF5A (lysine-50) immunoprecipitates with DHS and deoxyhypusyl-eIF5A interacts with DOHH in vitro. It was discovered that the deoxyhypusyl-eIF5A:DOHH complex formed in vivo can be detected by immunoprecipitation from cell extracts. Taking advantage of this finding, the effects of the drugs on the enzyme-substrate interaction were tested. FLAG-eIF5A was expressed in 293T cells and complexes that immunoprecipitated with anti-FLAG antibody were immunoblotted and probed with antibodies against DOHH. […] As a further control, the DHS inhibitor GC7 was included in this assay. […] As expected, none of the compounds affected the immunoprecipitation of FLAG-eIF5A (FIG. 2D, middle panel) or the expression of endogenous eIF5A (FIG. 2D, bottom panel). Reciprocally, the interaction between endogenous eIF5A and tagged DOHH was inhibited by CPX and DEF (FIG. 2E, right). Similarly, the interaction of endogenous eIF5A with tagged DHS was inhibited by GC7 (FIG. 2E, left) but resistant to CPX and DEF. It is concluded that CPX and DEF, but not P2 or DFOX, target DOHH and inhibit its interaction with its substrate, deoxyhypusylelF5A.

eIF5A:DHS complex = target: T2, eIF5A:DHS complex (Homo sapiens, UniProt P49366); assay: Co-immunoprecipitation of eIF5A with DHS from 293T cell extracts; format: cell-based; conditions: 293T transfected with FLAG-DHS
T2 construct: expressed in transfected cells; host or cells: 293T cells (FLAG-DHS transfected, eIF5A endogenous)
T2 sequence (P49366 1-369): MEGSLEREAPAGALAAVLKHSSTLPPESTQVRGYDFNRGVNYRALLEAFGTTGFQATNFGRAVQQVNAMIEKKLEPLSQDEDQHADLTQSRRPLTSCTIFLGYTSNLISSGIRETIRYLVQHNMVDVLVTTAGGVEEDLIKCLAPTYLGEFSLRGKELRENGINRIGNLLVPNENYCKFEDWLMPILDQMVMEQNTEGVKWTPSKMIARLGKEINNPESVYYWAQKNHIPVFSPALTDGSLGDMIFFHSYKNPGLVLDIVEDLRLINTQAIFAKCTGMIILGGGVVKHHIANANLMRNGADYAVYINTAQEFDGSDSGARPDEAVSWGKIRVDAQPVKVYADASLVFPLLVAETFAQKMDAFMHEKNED
Protocol: as §1, §2

HIV p24 = assay: p24 expression from pNL4-3-LucE- molecular clone in 293T cells; format: cell-based, HIV-1; conditions: 293T cell extract; 12 hr post-transfection
Protocol: FIGS. 3A-D are a set of diagrams and photographs showing drug effects on luciferase expression from an HIV-1 molecular clone. A. Comparison of drug effects on luciferase expression from the pNL4-3-LucE- molecular clone in 293T cells. The molecular clone pNL4-3-LucE- and pCMV-Ren were transfected into 293T cells. Drugs were added where indicated at the following concentrations: P2 (30 μM), CPX (30 μM), DEF (250 μM), or DFOX (15 μM). Dual luciferase assays were conducted at 12 hr post-transfection. Firefly (FF) luciferase expression was normalized to Renilla luciferase (Ren) from pCMV-Ren (mean of 2 experiments in duplicate, ±SD). B. Expression in Jurkat cells was assayed essentially as in panel A. C. Firefly and Renilla luciferase RNA expression was analyzed in 293T cells treated as in panel A by RPA using 32P-[UTP] labeled antisense RNA probes corresponding to the C-termini of the FF and Ren luciferase mRNAs. D. Comparison of drug effects on p24 expression from the pNL4-3-LucE- molecular clone in 293T cells. Drugs were added where indicated to the same concentrations as in A. p24 levels were determined in cell extract at 12 hr post-transfection.
p24 core antigen in the supernatant was quantified by ELISA (Retrotek HIV-1 p24™; ZeptoMetrix Corp.; Buffalo, N.Y.). HIV-1 RNA copy number in the supernatant was determined with a PCR-based and FDA-approved assay (Amplicor HIV-1 Monitor™; Roche Diagnostics Corp.; Indianapolis, Ind.). IFN-γ and IL-10 in the supernatant were determined by cytometric bead array (Human Th1/Th2 Cytokine Kit II™; BD Biosciences Pharmingen, San Jose, Calif.).

[1] = tested on: bioavailable intracellular iron; assay: IRE-controlled luciferase reporter in 293T cells; format: cell-based, human; conditions: 12 hr
Protocol: 293T cells (10^5 cells/well of 12-well microplates) were seeded and transfected 20 hr later with a firefly luciferase (Luc)-expressing reporter plasmid and corresponding Renilla luciferase (Ren)-expressing reference plasmid using TransFectin™ (Bio-Rad, Hercules, Calif.). The bioavailable intracellular iron concentration was monitored using plasmids obtained from B. Galy and M. W. Hentze (EMBL, Heidelberg). Plasmid pcFIF-Luc contains the mouse ferritin H 5′-UTR with an iron response element (IRE) controlling Luc; pcFIRo-Ren is a similar construct expressing a mutated non-functional IRE fused to Ren. The activity of the HIV-1 promoter was monitored using the pNL4-3-Luc E molecular clone (Chen et al. (1994) J Virol 68: 654-660.), based on the recombinant infectious proviral clone that contains DNA from HIV isolates NY5 (5′ half) and IIIB (3′ half). This plasmid, obtained from D. Baltimore (Caltech, Pasadena), contains the Luc gene in place of 102 nucleotides from nef and 6 nucleotides from env. pCMV-Ren (Promega, Madison, Wis.) was used as reference for pNL4-3-Luc E. Compounds were added at the time of transfection. Cells were harvested 12 hr later, washed with phosphate-buffered saline, and lysed for the dual luciferase assay (Dual Luciferase™ Reporter Assay System; Promega, Madison, Wis.). Luc data were normalized to the Ren internal controls (Hogue et al. (2009) Retrovirology 6: 90.).
Both CPX and DEF are hydroxypyridinones with vicinally positioned oxygen atoms that mediate bidentate interaction with metal ions, in particular Fe^3+ (FIG. 11A). To evaluate the effect of drugs on the intracellular iron pool and on HIV-1 gene expression, transient expression assays in human 293T cells were exploited. Bioavailable intracellular iron was measured using a construct in which an iron-responsive element (IRE) controls luciferase expression, and HIV-specific transcription was assayed in parallel using an HIV-1 molecular clone that expresses luciferase reporter under the direction of the retroviral promoter. CPX and DEF were compared with the medicinal chelator deferoxamine (DFOX) and with the CPX fragment Agent P2, which consists of the metal-binding 1,2-HOPO domain of CPX but lacks the cyclohexyl moiety (FIG. 11A).

[2] = in vivo, cited from earlier work

With NCCCCCCCN=C(N)N [GC7] the “association of endogenous DOHH with FLAG-eIF5A” value (eIF5A:DOHH complex) was “No DOHH was associated with FLAG-eIF5A” and the “interaction of endogenous eIF5A with tagged DHS” value (eIF5A:DHS complex) was “inhibited”.
For CC(=O)N(O)CCCCCNC(=O)CCC(=O)N(O)CCCCCNC(=O)CCC(=O)N(O)CCCCCN [DFOX, deferoxamine], the “inhibition of HIV p24 expression from the molecular clone” value (HIV p24) is listed as “no effect”, the “reduction of intracellular iron (IRE-dependent luciferase)” value [1] is listed as 80% and the “peak concentration achievable in patients” value ([2]; human) is listed as 15 µM. For the same compound, the “maximum achievable in human plasma” value [2] was 20 µM.
